Data from PMC12196358, “Indole Alkaloids and Phenolic Amides from the Rhizomes of Cimicifuga heracleifolia and Their In Vitro Soluble Epoxide Hydrolase (sEH) Inhibitory Activity” (Plants, 2025).
Entries after “also recorded” stand apart in the source; their conditions may differ.

Experiments:
[1] = molecular target: T1, soluble epoxide hydrolase (sEH) (Homo sapiens, UniProt P34913); assay: sEH inhibitory activity, fluorescence-based assay with PHOME as substrate; assay type: biochemical; conditions: recombinant sEH; for IC50: 37 °C, mean ± SD (n = 3); for sEH inhibitory activity (in words): compounds tested 0.1–100.0 μM
T1 construct: purchased Cayman Chemical Company 100116
T1 sequence (P34913 1-555): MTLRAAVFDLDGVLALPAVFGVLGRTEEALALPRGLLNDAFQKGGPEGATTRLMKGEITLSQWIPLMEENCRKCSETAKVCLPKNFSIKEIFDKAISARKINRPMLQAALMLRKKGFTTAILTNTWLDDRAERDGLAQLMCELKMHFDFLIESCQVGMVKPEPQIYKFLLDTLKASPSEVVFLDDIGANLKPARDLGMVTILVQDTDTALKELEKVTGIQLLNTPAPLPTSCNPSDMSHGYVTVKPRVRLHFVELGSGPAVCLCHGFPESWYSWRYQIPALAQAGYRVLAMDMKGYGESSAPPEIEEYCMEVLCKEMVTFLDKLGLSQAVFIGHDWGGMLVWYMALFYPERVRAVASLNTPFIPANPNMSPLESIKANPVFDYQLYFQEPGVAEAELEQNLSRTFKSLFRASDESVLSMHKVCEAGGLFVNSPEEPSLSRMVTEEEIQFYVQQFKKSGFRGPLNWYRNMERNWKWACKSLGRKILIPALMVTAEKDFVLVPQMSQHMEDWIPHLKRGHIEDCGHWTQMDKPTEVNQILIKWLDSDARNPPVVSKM
Procedure: The sEH inhibitory activities of compounds 1−10 were evaluated using a fluorescence-based assay with 3-phenyl-cyano(6-methoxy-2-naphthalenyl)methyl ester-2-oxiraneacetic acid (PHOME) as the substrate.
The epoxide hydrolase (sEH) enzyme is a recombinant enzyme with a concentration of 0.8 mg/mL, purchased from the Cayman Chemical Company in the United States (catalogue number: 100116, batch number: 069065) and stored at −80 °C to ensure its activity.
The enzymatic reactions were performed in a 96-well plate at 37 °C, where sEH hydrolyzed the fluorogenic substrate PHOME (MedChemExpress LLC., Princeton, NJ, USA) in the presence of each compound. The fluorescence signals were measured at an excitation wavelength of 330 nm and an emission wavelength of 465 nm. Wells containing the substrate alone (without the test compounds) served as negative controls. […] The inhibitory activity of each compound was evaluated based on the reduction in the formation of 6-methoxy-2-naphthaldehyde, a fluorescent product generated by PHOME hydrolysis.

[2] = molecular target: T1, soluble epoxide hydrolase (sEH); assay: sEH kinetic study (Lineweaver–Burk plots, varying inhibitor and PHOME concentrations); assay type: biochemical; conditions: compound 1 to 5 μM, PHOME 1 to 20 μM
Procedure: Furthermore, the inhibition mechanisms of phenolic amides 6–8 and 10 were elucidated by kinetic analysis using various concentrations of compounds and the substrate, PHOME.
The inhibitory behaviour of compounds 6–8 and 10 against sEH was examined by analyzing kinetic changes at varying inhibitor concentrations. Each compound was tested at concentrations ranging from 1 to 5 μM, whereas the substrate PHOME was applied at concentrations ranging from 1 to 20 μM. The experimental data were fitted to the Michaelis–Menten equation to evaluate the kinetic parameters. The mode of inhibition was further determined using Lineweaver–Burk plots. Data were analyzed and plotted using GraphPad Prism 7 (GraphPad Software Inc., San Diego, CA, USA).

Compound | IC50 [1] [µM] | sEH inhibitory activity (in words) [1] | mechanism (mode) of sEH inhibition [2]
COc1ccc2c(C(=O)C=C(C)C)c[nH]c2c1 [Compound 1, 6-methoxy-3-(3-methyl-1-oxo-2-butenyl) 1H indole] | > 100 | lack of inhibitory activity | 
CC(C)=CC(=O)c1c[nH]c2ccccc12 [Compound 2, 3-(3-methyl-1-oxo-2-butenyl) 1H indole] | > 100 | lack of inhibitory activity | 
CC(C)CC[C@]1(O)C(=O)N([C@@H]2O[C@H](CO)[C@@H](O)[C@H](O)[C@H]2O)c2ccccc21 [Compound 3, (3R)-1-(β-D-glucopyranosyl)-3-hydroxy-3-(3-methylbutyl)-2-oxindole] | > 100 |  | 
CC(=O)NCCc1ccc(O)c(OC2OC(CO)C(O)C(O)C2O)c1 [Compound 4, N-acetyldopamine-3-O-β-D-allopyranoside] | > 100 | did not show significant inhibitory activity | 
CC(=O)NCCc1ccc(O)c(O[C@@H]2O[C@H](CO)[C@@H](O)[C@H](O)[C@H]2O)c1 [Compound 5, N-acetyldopamine-3-O-β-D-glucopyranoside] | > 100 | did not show significant inhibitory activity | 
COc1cc(/C=C/C(=O)NCCc2ccc(O)c(O)c2)ccc1O[C@@H]1O[C@H](CO)[C@H](O)[C@H](O)[C@H]1O [Compound 6, cimicifugamide A] | 8.74 ± 0.42 | most potent sEH inhibitory activity | non-competitive
COc1cc(CCNC(=O)/C=C/c2ccc(O[C@@H]3O[C@H](CO)[C@H](O)[C@H](O)[C@H]3O)c(OC)c2)ccc1O [Compound 7, cimicifugamide] | 15.63 ± 0.1 | moderate inhibitory activity | mixed-type competitive
COc1cc(/C=C/C(=O)NCCc2ccc(O)cc2)ccc1O[C@@H]1O[C@H](CO)[C@H](O)[C@H](O)[C@H]1O [Compound 8, demethoxycimicifugamide] | 20.6 ± 0.89 | moderate inhibitory activity | mixed-type competitive
COc1cc(C=CC(=O)NCCc2ccc(OC3OC(CO)C(O)C(O)C3O)c(OC)c2)ccc1O (centres unmarked) [Compound 9, cimicifugamide C] | > 100 | did not show significant inhibitory activity; also recorded: no sEH inhibitory activity | 
COc1cc(/C=C/C(=O)NCCc2ccc(O)cc2)ccc1O [Compound 10, N-trans-feruloyl tyramine] | 17.2 ± 0.31 | moderate inhibitory activity | uncompetitive
